What is called IC50 is the concentration needed to halve the response being measured.

The test system of this assay is Kuramochi cells. Kind of assay: BrdU Cell Proliferation Assay. The class given is cell-based. Conditions: read-out: BrdU - KURAMOCHI.1: IC50. Put shortly: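 Signal is 450 nm absorbance from a peroxidase anti-BrdU ELISA after a 1-hour BrdU label, background-subtracted and normalized to DMSO-treated wells. Kuramochi cells (2,000 per well) had been exposed to compound for 4 days. Dosing used a 10-point dose response in 3-fold steps.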
With `CNC(=O)[C@@H](NC(=O)[C@@H]1CN(C(=O)c2cnn(Cc3ccccc3)c2)CC12CN(C(=O)[C@H]1CC1(C)C)C2)[C@@H](C)OCC1(C(F)(F)F)CC1` [I-205A], the IC50 is more than 10 µM.
As to `CNC(=O)[C@@H](NC(=O)[C@H]1CN(C(=O)c2cnn(Cc3ccccc3)c2)CC12CN(C(=O)[C@H]1CC1(C)C)C2)[C@@H](C)OCC1(C(F)(F)F)CC1` [I-205B], the IC50 is more than 10 µM.
In the case of `CC1(C)C[C@@H]1C(=O)N1CC2(CN(C(=O)c3cnn(Cc4ccccc4)c3)C[C@H]2C(=O)N[C@H]2CCN(c3ccccc3)C2)C1` [I-206], the IC50 is more than 10 µM.
Turning to `CNC(=O)[C@@H](NC(=O)[C@H]1CN(C(=O)c2sc(Cl)nc2C)CC12CN(C(=O)[C@H]1CC1(C)C)C2)[C@@H](C)OCC1CCCCC1` [I-208B], the IC50 was more than 10 µM.
As for `COC(=O)[C@H](CO)NC(=O)[C@@H]1CN(C(=O)c2cnn(Cc3ccccc3)c2)CC12CN(C(=O)[C@H]1CC1(C)C)C2` [I-209A], the IC50 is more than 10 µM.
For `COC(=O)[C@H](CO)NC(=O)[C@H]1CN(C(=O)c2cnn(Cc3ccccc3)c2)CC12CN(C(=O)[C@H]1CC1(C)C)C2` [I-209B], the IC50 is more than 10 µM.
As to `CC1(C)C[C@@H]1C(=O)N1CC2(CN(C(=O)c3cnn(Cc4ccccc4)c3)C[C@H]2C(=O)N2CCO[C@@H](Cc3ccccc3)C2)C1` [I-210], the IC50 is more than 10 µM.
Consider `CC1(C)C[C@@H]1C(=O)N1CC2(CN(C(=O)c3cnn(Cc4ccccc4)c3)C[C@H]2C(=O)N[C@@H]2CCCN(CC3CCCCC3)C2)C1` [I-212], for which the IC50 is more than 10 µM.
Turning to `CC1(C)C[C@@H]1C(=O)N1CC2(CN(C(=O)c3cnn(Cc4ccccc4)c3)C[C@H]2C(=O)N2CCC(OCc3ccccc3)CC2)C1` [I-214], the IC50 is more than 10 µM.
For the compound `CC1(C)C[C@@H]1C(=O)N1CC2(CN(C(=O)c3cnn(Cc4ccccc4)c3)C[C@H]2C(=O)N[C@@H]2CCCN(C(=O)C3CCCCC3)C2)C1` [I-215], the IC50 was more than 10 µM.
Take `C[C@@H](OCC1CCCCC1)[C@H](NC(=O)[C@@H]1CN(C(=O)c2ccn[nH]2)CC12CN(C(=O)[C@H]1CC1(C)C)C2)C(=O)N1CCCCC1` [I-216]: the IC50 was more than 10 µM.
The same measure for `C[C@@H](OCC1CCCCC1)[C@H](NC(=O)[C@@H]1CN(C(=O)c2ccns2)CC12CN(C(=O)[C@H]1CC1(C)C)C2)C(=O)N1CCCCC1` [I-217]: not above 0.5 µM; for `C[C@@H](OCC1CCCCC1)[C@H](NC(=O)[C@@H]1CN(C(=O)c2cnn(Cc3ccccc3)c2)CC12CN(C(=O)[C@H]1CC1(C)C)C2)C(=O)N1CCC[C@@H](N)C1` [I-218]: 5 to 10 µM.
Take `C[C@@H](OCC1CCCCC1)[C@H](NC(=O)[C@@H]1CN(C(=O)c2cnn(Cc3ccccc3)c2)CC12CN(C(=O)[C@H]1CC1(C)C)C2)C(=O)N1CCC(CN)CC1` [I-219]: the IC50 lay within 0.5 to 5 µM.
As to `C[C@@H](OCC1CCCCC1)[C@H](NC(=O)[C@@H]1CN(C(=O)c2cnn(Cc3ccccc3)c2)CC12CN(C(=O)[C@H]1CC1(C)C)C2)C(=O)N1CCC[C@H]1CN` [I-220], the IC50 was more than 10 µM.
Take `CC1(C)C[C@@H]1C(=O)N1CC2(CN(C(=O)c3cnn(Cc4ccccc4)c3)C[C@H]2C(=O)NCC2CCCCO2)C1` (stereo partly drawn) [I-221]: the IC50 was more than 10 µM.
Consider `CC1(C)C[C@@H]1C(=O)N1CC2(CN(C(=O)c3cnn(Cc4ccccc4)c3)C[C@H]2C(=O)NC2CCNC(=O)C2)C1` (stereo partly drawn) [I-223], for which the IC50 was more than 10 µM.
As to `CNC(=O)[C@@H](NC(=O)[C@@H]1CN(C(=O)c2scnc2C2CCCC2)CC12CN(C(=O)[C@H]1CC1(C)C)C2)[C@@H](C)OCC1CCCCC1` [I-224B], the IC50 is more than 10 µM.
For the compound `CNC(=O)[C@H](CSCc1ccccc1)NC(=O)[C@@H]1CN(C(=O)c2cnn(Cc3ccccc3)c2)CC12CN(C(=O)[C@H]1CC1(C)C)C2` [I-225], the IC50 was more than 10 µM.
As to `CNC(=O)[C@H](CS(=O)(=O)Cc1ccccc1)NC(=O)[C@@H]1CN(C(=O)c2cnn(Cc3ccccc3)c2)CC12CN(C(=O)[C@H]1CC1(C)C)C2` [I-226], the IC50 is more than 10 µM.
Turning to `CNC(=O)[C@@H](NC(=O)[C@H]1CN(C(=O)c2sc(C(C)C)nc2C)CC12CN(C(=O)[C@H]1CC1(C)C)C2)[C@@H](C)OCC1CCCCC1` [I-227B], the IC50 was more than 10 µM.
Regarding `C[C@@H](OCC1CCC(F)(F)CC1)[C@H](NC(=O)[C@H]1CN(C(=O)c2cn[nH]c2)CC12CN(C(=O)[C@H]1CC1(C)C)C2)C(=O)N1CCC(F)(F)CC1` [I-228B], the IC50 is more than 10 µM.
The same measure for `CNC(=O)[C@@H](NC(=O)[C@H]1CN(C(=O)c2cnc(C(C)(C)C)s2)CC12CN(C(=O)[C@H]1CC1(C)C)C2)[C@@H](C)OCC1CCCCC1` [I-229B]: more than 10 µM; for `CC1(C)C[C@@H]1C(=O)N1CC2(CN(C(=O)c3cnn(Cc4ccccc4)c3)C[C@H]2C(=O)NCc2nc3ccccc3o2)C1` [I-230]: more than 10 µM.
The same measure for `CNC(=O)[C@@H](NC(=O)[C@H]1CN(C(=O)c2scnc2C(C)(C)C)CC12CN(C(=O)[C@H]1CC1(C)C)C2)[C@@H](C)OCC1CCCCC1` [I-231B]: more than 10 µM; for `CNC(=O)[C@@H](NC(=O)[C@H]1CN(C(=O)c2sc(Cl)nc2Cl)CC12CN(C(=O)[C@H]1CC1(C)C)C2)[C@@H](C)OCC1CCCCC1` [I-232B]: more than 10 µM.
For the compound `CC(C)O[C@H]1C[C@H](NC(=O)[C@@H]2CN(C(=O)c3cnn(Cc4ccccc4)c3)CC23CN(C(=O)[C@H]2CC2(C)C)C3)C1` [I-233], the IC50 is more than 10 µM.
Take `CC1(C)C[C@@H]1C(=O)N1CC2(CN(C(=O)c3cnn(Cc4ccccc4)c3)C[C@H]2C(=O)N2CC[C@@H](OCC3CCCCC3)C2)C1` [I-235]: the IC50 is more than 10 µM.
On to `CC1(C)C[C@@H]1C(=O)N1CC2(CN(C(=O)c3cnn(Cc4ccccc4)c3)C[C@H]2C(=O)N2CCC[C@H](OCC3CCCCC3)C2)C1` [I-236], for which the IC50 is more than 10 µM.
Consider `CC1(C)C[C@@H]1C(=O)N1CC2(CN(C(=O)c3cnn(Cc4ccccc4)c3)C[C@H]2C(=O)N2CCN(CC3CCCCC3)CC2)C1` [I-237], for which the IC50 was more than 10 µM.
As for `C[C@@H](OCC1CCCCC1)[C@H](NC(=O)[C@@H]1CN(C(=O)c2cnn(Cc3ccccc3)c2)CC12CN(C(=O)[C@H]1CC1(C)C)C2)C(=O)N1CCC[C@@H]1CN` [I-238], the IC50 was more than 10 µM.
On to `C[C@@H](OCC1CCCCC1)[C@H](NC(=O)[C@@H]1CN(C(=O)c2cnn(Cc3ccccc3)c2)CC12CN(C(=O)[C@H]1CC1(C)C)C2)C(=O)N1CC(CN)C1` [I-239], for which the IC50 is more than 10 µM.
Take `C[C@@H](OCC1CCCCC1)[C@H](NC(=O)[C@@H]1CN(C(=O)c2cnn(Cc3ccccc3)c2)CC12CN(C(=O)[C@H]1CC1(C)C)C2)C(=O)N1CC2(CNC2)C1` [I-240]: the IC50 is more than 10 µM.
For `Cc1n[nH]c(C(=O)N2C[C@@H](C(=O)N[C@H](C(=O)N3CCCCC3)[C@@H](C)OCC3CCCCC3)C3(C2)CN(C(=O)[C@H]2CC2(C)C)C3)n1` [I-241], the IC50 is more than 10 µM.
Regarding `C[C@@H](OCC1CCCCC1)[C@H](NC(=O)C1CN(C(=O)C2CCC(=O)N(C)C2)CC12CN(C(=O)[C@H]1CC1(C)C)C2)C(=O)N1CCCCC1` (stereo partly drawn) [I-242], the IC50 is more than 10 µM.
`CC1(C)C[C@@H]1C(=O)N1CC2(CN(C(=O)c3cnn(Cc4ccccc4)c3)C[C@H]2C(=O)N[C@H]2CCN(C3CC3)C2=O)C1` [I-243]: the IC50 was more than 10 µM.
In the case of `CNC(=O)[C@@H](NC(=O)[C@@H]1CN(C(=O)c2cnn(Cc3ccccc3)c2)CC12CN(C(=O)[C@H]1CC1(C)C)C2)[C@@H](C)OCc1ccncc1` [I-244], the IC50 is more than 10 µM.
Consider `CC1(C)C[C@@H]1C(=O)N1CC2(CN(C(=O)c3cnn(Cc4ccccc4)c3)CC2C(=O)NC2CNCCOC2)C1` (stereo partly drawn) [I-245], for which the IC50 is more than 10 µM.
The same measure for `CNC(=O)[C@@H](NC(=O)[C@@H]1CN(C(=O)c2cnn(Cc3ccccc3)c2)CC12CN(C(=O)[C@H]1CC1(C)C)C2)[C@@H](C)OCc1cccnc1` [I-247]: more than 10 µM; for `CO[C@@H]1CC[C@H](NC(=O)[C@@H]2CN(C(=O)c3cnn(Cc4ccccc4)c3)CC23CN(C(=O)[C@H]2CC2(C)C)C3)C1` [I-248]: more than 10 µM.
Regarding `COCC1(NC(=O)[C@H]2CN(C(=O)c3cnn(Cc4ccccc4)c3)CC23CN(C(=O)[C@H]2CC2(C)C)C3)CC1` [I-250], the IC50 was more than 10 µM.
Turning to `CNC(=O)[C@@H](NC(=O)[C@@H]1CN(C(=O)c2cnn(Cc3ccccc3)c2)CC12CN(C(=O)[C@H]1CC1(C)C)C2)[C@@H](C)OCc1ccccc1O` [I-251], the IC50 is more than 10 µM.
Turning to `CC1(C)C[C@@H]1C(=O)N1CC2(CN(C(=O)c3cnn(Cc4ccccc4)c3)C[C@H]2C(=O)N2CCC[C@@H](OCC3CCCCC3)C2)C1` [I-254], the IC50 is more than 10 µM.
As to `CC1(C)C[C@@H]1C(=O)N1CC2(CN(C(=O)c3cnn(Cc4ccccc4)c3)C[C@H]2C(=O)N2CCO[C@H](Cc3ccccc3)C2)C1` [I-255], the IC50 is more than 10 µM.
In the case of `CC1(C)C[C@@H]1C(=O)N1CC2(CN(C(=O)c3cnn(Cc4ccccc4)c3)C[C@H]2C(=O)N2CC[C@H](OCC3CCCCC3)C2)C1` [I-256], the IC50 was 5 to 10 µM.
As for `CO[C@H](C)[C@H](NC(=O)[C@@H]1CN(C(=O)c2cnn(C)c2)CC12CN(C(=O)[C@H]1CC1(C)C)C2)C(=O)N1CCCCC1` [I-303], the IC50 is more than 10 µM.
With `C[C@@H](O)[C@H](NC(=O)[C@@H]1CN(C(=O)c2cnn(C)c2)CC12CN(C(=O)[C@H]1CC1(C)C)C2)C(=O)N1CCCCC1` [I-305], the IC50 was 0.5 to 5 µM.
In the case of `COC[C@H]1CCCN(C(=O)[C@@H](NC(=O)[C@@H]2CN(C(=O)c3cncs3)CC23CN(S(=O)(=O)C(C)(C)C)C3)[C@@H](C)OCC2CCCCC2)C1` [I-447, (S)-2-(tert-butylsulfonyl)-N-((2S,3R)-3-(cyclohexylmethoxy)-1-((S)-3-(methoxymethyl)piperidin-1-yl)-1-oxobutan-2-yl)-6-(thiazole-5-carbonyl)-2,6-diazaspiro[3.4]octane-8-carboxamide], the IC50 was more than 10 µM.
